Measurements reported in paper PMC8374649, “IBI362 (LY3305677), a weekly-dose GLP-1 and glucagon receptor dual agonist, in Chinese adults with overweight or obesity: A randomised, placebo-controlled, multiple ascending dose phase 1b study” (EClinicalMedicine, 2021).

Tested on: Chinese adults with overweight or obesity
Assay: Safety and tolerability (treatment emergent adverse events), multiple ascending dose phase 1b study
Assay type: in vivo, human
Method: The study included a 3-week screening period, a 12-week treatment period and an 8-week safety follow-up period. During the 12-week treatment period, the dose of IBI362 or placebo was escalated within each cohort according to one of the three dose-escalation schedules (Fig. S1). The dose-escalation regimen for the 3.0 mg cohort was 1.0 mg for 4 weeks, followed by 2.0 mg for 4 weeks and then 3.0 mg for the final 4 weeks. The dose-escalation regimen for the 4.5 mg cohort was 1.5 mg for 4 weeks, followed by 3.0 mg for 4 weeks and then 4.5 mg for the final 4 weeks. The dose-escalation regimen for the 6.0 mg cohort was 2.0 mg for 4 weeks, followed by 4.0 mg for 4 weeks and then 6.0 mg for the final 4 weeks. The 6.0 mg cohort started dosing after tolerability evaluation of 1.5 mg dosing in the 4.5 mg cohort. The internal unblinded safety monitoring group was responsible for the safety monitoring. All treatments were subcutaneously administered once a week. Investigators and authorized study personnel in each centre recorded the study data into the electronic case report forms (eCRFs), which were reviewed and validated by clinical research associates (CRAs). The data in the eCRFs were submitted to the electronic data capture (EDC) database. HbA1c, fasting plasma glucose and fasting insulin tests were performed in a central lab (Wuxi AppTec Inc.).
The primary endpoints of the study were safety and tolerability of IBI362. Adverse events (AEs) were categorised according to the Medical Dictionary for Regulatory Activities system organ class and preferred terms. Treatment emergent adverse events (TEAEs) and serious adverse events were monitored in all participants throughout the treatment period and the safety follow-up period. The severity of the AEs (mild, moderate or severe) and the association between an AE and the study drug was assessed by investigators based on pre-specified criteria.
Safety analyses were done in the safety population (defined as all participants who received at least one dose of the study treatment). Pharmacokinetic analyses were done in the pharmacokinetic population (defined as all participants who received at least one dose of IBI362 and had at least one valid plasma concentration assessment). Pharmacodynamic analyses were done in the pharmacodynamic population (defined as all participants who received at least one dose of the study treatment and had baseline and at least one valid assessment). Efficacy analyses were done in the efficacy population (defined as all participants who received at least one dose of the study treatment and had at least one post-baseline assessment).

[1] = 3.0 mg cohort (1.0-2.0-3.0 mg sc once weekly, 4 weeks each), n = 8
[2] = 4.5 mg cohort (1.5-3.0-4.5 mg sc once weekly, 4 weeks each), n = 8
[3] = 6.0 mg cohort (2.0-4.0-6.0 mg sc once weekly, 4 weeks each), n = 8

CC(C)C[C@H](NC(=O)[C@H](CC(C)C)NC(=O)[C@H](Cc1c[nH]c2ccccc12)NC(=O)[C@H](CCC(=O)O)NC(=O)[C@@H](NC(=O)[C@H](Cc1ccccc1)NC(=O)[C@H](CCC(=O)O)NC(=O)[C@H](CCCCNC(=O)COCCOCCNC(=O)COCCOCCNC(=O)CC[C@H](NC(=O)CCCCCCCCCCCCCCCCCCC(=O)O)C(=O)O)NC(=O)[C@H](C)NC(=O)[C@H](CCCCN)NC(=O)[C@H](CCCCN)NC(=O)[C@H](CCC(=O)O)NC(=O)[C@H](CC(=O)O)NC(=O)[C@H](CC(C)C)NC(=O)[C@H](Cc1ccc(O)cc1)NC(=O)[C@H](CCCCN)NC(=O)[C@H](CO)NC(=O)[C@H](Cc1ccc(O)cc1)NC(=O)[C@H](CC(=O)O)NC(=O)[C@H](CO)NC(=O)[C@@H](NC(=O)[C@H](Cc1ccccc1)NC(=O)[C@@H](NC(=O)CNC(=O)[C@H](CCC(N)=O)NC(=O)C(C)(C)NC(=O)[C@@H](N)Cc1c[nH]cn1)[C@@H](C)O)[C@@H](C)O)C(C)C)C(=O)N[C@@H](CCC(=O)O)C(=O)NCC(=O)NCC(=O)N1CCC[C@H]1C(=O)N[C@@H](CO)C(=O)N[C@@H](CO)C(=O)NCC(N)=O [IBI362]
Abdominal distension [1]: 1 (12.5) n (%)
Abdominal pain [1]: 0 n (%)
Atrioventricular block first degree [1]: 1 (12.5) n (%)
Back pain [1]: 1 (12.5) n (%)
Blood glucose increased [1]: 0 n (%)
Calculus urinary [1]: 1 (12.5) n (%)
Cardiac disorders (system organ class) [1]: 1 (12.5) n (%)
Constipation [1]: 1 (12.5) n (%)
Decreased appetite [1]: 1 (12.5) n (%)
Diarrhea [1]: 0 n (%)
Dry mouth [1]: 0 n (%)
Dyslipidaemia [1]: 0 n (%)
Dysmenorrhoea [1]: 1 (12.5) n (%)
Dyspepsia [1]: 0 n (%)
Fatigue [1]: 0 n (%)
Folliculitis [1]: 0 n (%)
Gastrointestinal AE, Mild [1]: 2 (25.0) n (%)
Gastrointestinal AE, Moderate [1]: 1 (12.5) n (%)
Gastrointestinal disorders (system organ class) [1]: 4 (50.0) n (%)
Gastrointestinal inflammation [1]: 1 (12.5) n (%)
General disorders and administration site conditions (system organ class) [1]: 1 (12.5) n (%)
Hiccups [1]: 0 n (%)
Hyperlipidaemia [1]: 0 n (%)
Hyperuricaemia [1]: 0 n (%)
Hypoglycaemia event [1]: 0 n (%)
Infections and infestations (system organ class) [1]: 4 (50.0) n (%)
Injury, poisoning and procedural complications (system organ class) [1]: 1 (12.5) n (%)
Investigations (system organ class) [1]: 0 n (%)
Menstruation irregular [1]: 0 n (%)
Mental fatigue [1]: 0 n (%)
Metabolism and nutrition disorders (system organ class) [1]: 1 (12.5) n (%)
Mouth ulceration [1]: 1 (12.5) n (%)
Musculoskeletal and connective tissue disorders (system organ class) [1]: 1 (12.5) n (%)
Myocardial ischemia [1]: 0 n (%)
Nasopharyngitis [1]: 1 (12.5) n (%)
Nausea [1]: 0 n (%)
Neutrophil count increased [1]: 0 n (%)
Oropharyngeal pain [1]: 0 n (%)
Proteinuria [1]: 0 n (%)
Psychiatric disorders (system organ class) [1]: 0 n (%)
Pyrexia [1]: 1 (12.5) n (%)
Renal and urinary disorders (system organ class) [1]: 1 (12.5) n (%)
Reproductive system and breast disorders (system organ class) [1]: 1 (12.5) n (%)
Respiratory, thoracic and mediastinal disorders (system organ class) [1]: 0 n (%)
Serious adverse event [1]: 0 n (%)
Sinus tachycardia [1]: 0 n (%)
Skin and subcutaneous tissue disorders (system organ class) [1]: 1 (12.5) n (%)
Soft tissue injury [1]: 1 (12.5) n (%)
Starvation [1]: 0 n (%)
TEAE (individuals with ≥ 1 TEAE) [1]: 6 (75.0) n (%)
Thermal burn [1]: 0 n (%)
Tonsillitis [1]: 1 (12.5) n (%)
Treatment-related AE [1]: 3 (37.5) n (%)
Upper respiratory tract infection [1]: 2 (25.0) n (%)
Urticaria [1]: 1 (12.5) n (%)
Vomiting [1]: 1 (12.5) n (%)
White blood cell count increased [1]: 0 n (%)
Abdominal distension [2]: 0 n (%)
Abdominal pain [2]: 2 (25.0) n (%)
Atrioventricular block first degree [2]: 0 n (%)
Back pain [2]: 0 n (%)
Blood glucose increased [2]: 0 n (%)
Calculus urinary [2]: 0 n (%)
Cardiac disorders (system organ class) [2]: 2 (25.0) n (%)
Constipation [2]: 0 n (%)
Decreased appetite [2]: 5 (62.5) n (%)
Diarrhea [2]: 3 (37.5) n (%)
Dry mouth [2]: 2 (25.0) n (%)
Dyslipidaemia [2]: 1 (12.5) n (%)
Dysmenorrhoea [2]: 0 n (%)
Dyspepsia [2]: 0 n (%)
Fatigue [2]: 1 (12.5) n (%)
Folliculitis [2]: 0 n (%)
Gastrointestinal AE [2]: 5 (62.5) n (%)
Gastrointestinal AE, Mild [2]: 5 (62.5) n (%)
Gastrointestinal AE, Moderate [2]: 0 n (%)
Gastrointestinal disorders (system organ class) [2]: 5 (62.5) n (%)
Gastrointestinal inflammation [2]: 0 n (%)
General disorders and administration site conditions (system organ class) [2]: 1 (12.5) n (%)
Hiccups [2]: 0 n (%)
Hyperlipidaemia [2]: 0 n (%)
Hyperuricaemia [2]: 1 (12.5) n (%)
Hypoglycaemia event [2]: 0 n (%)
Infections and infestations (system organ class) [2]: 2 (25.0) n (%)
Injury, poisoning and procedural complications (system organ class) [2]: 1 (12.5) n (%)
Investigations (system organ class) [2]: 1 (12.5) n (%)
Menstruation irregular [2]: 0 n (%)
Mental fatigue [2]: 1 (12.5) n (%)
Metabolism and nutrition disorders (system organ class) [2]: 6 (75.0) n (%)
Mouth ulceration [2]: 0 n (%)
Musculoskeletal and connective tissue disorders (system organ class) [2]: 0 n (%)
Myocardial ischemia [2]: 1 (12.5) n (%)
Nasopharyngitis [2]: 0 n (%)
Nausea [2]: 3 (37.5) n (%)
Neutrophil count increased [2]: 1 (12.5) n (%)
Oropharyngeal pain [2]: 1 (12.5) n (%)
Proteinuria [2]: 2 (25.0) n (%)
Psychiatric disorders (system organ class) [2]: 1 (12.5) n (%)
Pyrexia [2]: 0 n (%)
Renal and urinary disorders (system organ class) [2]: 2 (25.0) n (%)
Reproductive system and breast disorders (system organ class) [2]: 0 n (%)
Respiratory, thoracic and mediastinal disorders (system organ class) [2]: 1 (12.5) n (%)
Serious adverse event [2]: 0 n (%)
Sinus tachycardia [2]: 1 (12.5) n (%)
Skin and subcutaneous tissue disorders (system organ class) [2]: 0 n (%)
Soft tissue injury [2]: 0 n (%)
Starvation [2]: 0 n (%)
TEAE (individuals with ≥ 1 TEAE) [2]: 7 (87.5) n (%)
Thermal burn [2]: 1 (12.5) n (%)
Tonsillitis [2]: 0 n (%)
Treatment-related AE [2]: 7 (87.5) n (%)
Upper respiratory tract infection [2]: 2 (25.0) n (%)
Urticaria [2]: 0 n (%)
Vomiting [2]: 0 n (%)
White blood cell count increased [2]: 1 (12.5) n (%)
Abdominal distension [3]: 0 n (%)
Abdominal pain [3]: 0 n (%)
Atrioventricular block first degree [3]: 0 n (%)
Back pain [3]: 0 n (%)
Blood glucose increased [3]: 0 n (%)
Calculus urinary [3]: 0 n (%)
Cardiac disorders (system organ class) [3]: 0 n (%)
Constipation [3]: 0 n (%)
Decreased appetite [3]: 1 (12.5) n (%)
Diarrhea [3]: 3 (37.5) n (%)
Dry mouth [3]: 0 n (%)
Dyslipidaemia [3]: 0 n (%)
Dysmenorrhoea [3]: 0 n (%)
Dyspepsia [3]: 1 (12.5) n (%)
Fatigue [3]: 0 n (%)
Folliculitis [3]: 1 (12.5) n (%)
Gastrointestinal AE [3]: 4 (50.0) n (%)
Gastrointestinal AE, Mild [3]: 3 (37.5) n (%)
Gastrointestinal AE, Moderate [3]: 1 (12.5) n (%)
Gastrointestinal disorders (system organ class) [3]: 4 (50.0) n (%)
Gastrointestinal inflammation [3]: 0 n (%)
General disorders and administration site conditions (system organ class) [3]: 0 n (%)
Hiccups [3]: 1 (12.5) n (%)
Hyperlipidaemia [3]: 0 n (%)
Hyperuricaemia [3]: 1 (12.5) n (%)
Hypoglycaemia event [3]: 0 n (%)
Infections and infestations (system organ class) [3]: 1 (12.5) n (%)
Injury, poisoning and procedural complications (system organ class) [3]: 0 n (%)
Investigations (system organ class) [3]: 0 n (%)
Menstruation irregular [3]: 0 n (%)
Mental fatigue [3]: 0 n (%)
Metabolism and nutrition disorders (system organ class) [3]: 3 (37.5) n (%)
Mouth ulceration [3]: 0 n (%)
Musculoskeletal and connective tissue disorders (system organ class) [3]: 0 n (%)
Myocardial ischemia [3]: 0 n (%)
Nasopharyngitis [3]: 0 n (%)
Nausea [3]: 1 (12.5) n (%)
Neutrophil count increased [3]: 0 n (%)
Oropharyngeal pain [3]: 0 n (%)
Proteinuria [3]: 0 n (%)
Psychiatric disorders (system organ class) [3]: 0 n (%)
Pyrexia [3]: 0 n (%)
Renal and urinary disorders (system organ class) [3]: 0 n (%)
Reproductive system and breast disorders (system organ class) [3]: 0 n (%)
Respiratory, thoracic and mediastinal disorders (system organ class) [3]: 1 (12.5) n (%)
Serious adverse event [3]: 0 n (%)
Sinus tachycardia [3]: 0 n (%)
Skin and subcutaneous tissue disorders (system organ class) [3]: 0 n (%)
Soft tissue injury [3]: 0 n (%)
Starvation [3]: 1 (12.5) n (%)
TEAE (individuals with ≥ 1 TEAE) [3]: 6 (75.0) n (%)
Thermal burn [3]: 0 n (%)
Tonsillitis [3]: 0 n (%)
Treatment-related AE [3]: 5 (62.5) n (%)
Upper respiratory tract infection [3]: 0 n (%)
Urticaria [3]: 0 n (%)
Vomiting [3]: 1 (12.5) n (%)
White blood cell count increased [3]: 0 n (%)
Magnitude of heart rate increase (12-lead ECG, first 6 weeks, more prominent later, especially 6.0 mg cohort, declining from week 9 (Fig. S3)): mild
Amylase, lipase and calcitonin levels (all IBI362 treatment groups (Fig S4)): increased in all IBI362 treatment groups but remained mostly within the normal reference range
Discontinuation of the study due to safety reason (all cohorts): No participant discontinued the study due to safety reason
Hypoglycaemia event or serious adverse event (all cohorts): No hypoglycaemia event or serious adverse event occurred
Investigator suspected pancreatitis (all cohorts): No investigator suspected pancreatitis was reported
Participants with at least one TEAE (all participants receiving IBI362 (n = 24), 19 participants): 79.2%
Nausea (all participants receiving IBI362 (n = 24), four participants): 16.7%
Decreased appetite (all participants receiving IBI362 (n = 24), seven participants): 29.2%
Diarrhea (all participants receiving IBI362 (n = 24), six participants): 25.0%
